Laboratory results from US4871730A, “Cephem compounds” (Fujisawa Pharmaceutical Co., Ltd., priority 1983, dated 1989).
Converted amounts (≈) assume the structure as drawn.

System: Escherichia coli 31
Assay: Minimal inhibitory concentration (MIC), in vitro antibacterial activity by two-fold agar-plate dilution method
Type: cell-based
Settings: heart infusion agar, 37° C, 20 hours
Protocol: In vitro antibacterial activity was determined by the two-fold agar-plate dilution method as described below.
One loopful of an overnight culture of each test strain in trypticase-soy broth (10^8 viable cells per ml) was streaked on heart infusion agar (HI-agar) containing graded concentrations of representative test compounds, and the minimal inhibitory concentration (MIC) was expressed in terms of μg/ml after incubation at 37° C for 20 hours.

SMILES	MIC
CO/N=C(\C(=O)NC1C(=O)N2C(C(=O)O)=C(S/C=C\c3cccnc3)CSC12)c1csc(N)n1 (stereo not drawn) [Test compound (2), 7-[2-(2-Aminothiazol-4-yl)-2-methoxyimino-acetamido]-3-[(Z)-2-(3-pyridyl)vinylthio]-3-cephem-4-carboxylic acid (syn isomer)]	< 0.025 µg/mL
C=CCO/N=C(\C(=O)NC1C(=O)N2C(C(=O)O)=C(S/C=C\c3cccnc3)CSC12)c1nsc(N)n1 (stereo not drawn) [Test compound (3), 7-[2-Allyloxyimino-2-(5-amino-1,2,4-thiadiazol-3-yl)acetamido]-3-[(Z)-2-(3-pyridyl)vinylthio]-3-cephem-4-carboxylic acid (syn isomer)]	0.05 µg/mL (≈ 0.0916 µM)
CCO/N=C(\C(=O)NC1C(=O)N2C(C(=O)[O-])=C(S/C=C\c3ccc[n+](C)c3)CSC12)c1csc(N)n1 (stereo not drawn) [Test compound (4), 7-[2-(2-Aminothiazol-4-yl)-2-ethoxyiminoacetamido]3-[(Z)-2-(1-methyl-3-piridinio)vinylthio]-3-cephem-4-carboxylate (syn isomer)]	< 0.025 µg/mL
CO/N=C(\C(=O)NC1C(=O)N2C(C(=O)[O-])=C(S/C=C\c3ccc[n+](C)c3)CSC12)c1csc(N)n1 (stereo not drawn) [Test compound (1), 7-[2-(2-Aminothiazol-4-yl)-2-methoxyiminoacetamido]-3-[(Z)-2-(1-methyl-3-pyridinio)-vinylthio]-3-cephem-4-carboxylate (syn isomer)]	< 0.025 µg/mL
